Source: patent US12653859B2, “Peptides and medical uses thereof” (Anbition S.R.L., priority 2018, dated 2026)

What was measured:
[1] = molecular target: T1, VEGF-A/VEGFR-1 interaction (Homo sapiens, UniProt P17948); assay: ELISA competition assay of VEGF-A binding to VEGFR-1; conditions: tetrameric peptides of formula (II) with Y2 different from D-cysteine; read-out: IC50 of inhibition of the interaction VEGF-A/VEGFR-1
T1 construct: the form consisting of the seven extracellular domains of the receptor fused to the Fc domain of human IgG; purchased R&D Systems 321-FL (receptor); 293-VE (VEGF-A)
Method: The binding reaction was conducted for one hour at 37° C., followed by one hour at room temperature. At the end of the binding and/or competition step, anti-human-PIGF biotinylated polyclonal antibodies (R&D Systems, cat No. BAF264) or anti-human-VEGF-A (R&D Systems, cat No. BAF293) were added to the wells at the concentration of 300 ng/ml in PBET. After one hour of incubation at 37° C. followed by one hour at room temperature, an HRP-conjugated avidin-streptavidin system (Vectastain elite ABC kit) and a substrate for HRP (o-phenylenediamine-Sigma, cat No. P1526) were added to the wells. Quantization was performed by determining the absorbance at 490 nm. Any inhibitory activity of the peptides was expressed in terms of % of residual binding, comparing the data obtained for the binding of PIGF or VEGF-A to the receptors in the presence of the tetrameric peptides with those in the absence of the same. iVR1 represented the positive control of the inhibition of the PIGF/VEGFR-1 or VEGF-A/VEGFR-1 interaction.

[2] = Serum protease stability in 10% fetal calf serum (RP-HPLC); type: in vitro ADME; conditions: 10% FCS
Method: The stability of the peptide iVR1-Cys in 10% serum (fetal calf serum, FCS) in a 50 mM phosphate buffer solution, pH 7.3, at 168 h was determined as described by Ponticelli et al., relying on a method based on RP-HPLC chromatography, described therein [Ponticelli et al., J Biol Chem. 2008 Dec. 5; 283 (49): 34250-9].
The reference curve was constructed by dissolving the compound in DMSO at increasing concentrations of between 0.1 μmol/L and 1000 μmol/L in order to have complete dissolution. The concentration of the molecule left in contact with 10% FCS at the initial concentration of 10 μmol/L was then determined by drawing 3 aliquots at time t=0, then every hour in the first 12 hours and then at 24, 72, 120, and 168 h. The aliquots were diluted 1:1 with acetic acid 0.1 M in order to detach any peptide bound to the albumin, centrifuged to remove any precipitated materials and analyzed by RP-HPLC under the conditions reported in Ponticelli et al. The amount of residual peptide detected in the aliquots, expressed as a percentage relative to the initial amount, was plotted as a function of time. The results are shown in Table VII as the mean of the three determinations±the standard deviation (SD).

T1 sequence (P17948 27-758 limits assumed): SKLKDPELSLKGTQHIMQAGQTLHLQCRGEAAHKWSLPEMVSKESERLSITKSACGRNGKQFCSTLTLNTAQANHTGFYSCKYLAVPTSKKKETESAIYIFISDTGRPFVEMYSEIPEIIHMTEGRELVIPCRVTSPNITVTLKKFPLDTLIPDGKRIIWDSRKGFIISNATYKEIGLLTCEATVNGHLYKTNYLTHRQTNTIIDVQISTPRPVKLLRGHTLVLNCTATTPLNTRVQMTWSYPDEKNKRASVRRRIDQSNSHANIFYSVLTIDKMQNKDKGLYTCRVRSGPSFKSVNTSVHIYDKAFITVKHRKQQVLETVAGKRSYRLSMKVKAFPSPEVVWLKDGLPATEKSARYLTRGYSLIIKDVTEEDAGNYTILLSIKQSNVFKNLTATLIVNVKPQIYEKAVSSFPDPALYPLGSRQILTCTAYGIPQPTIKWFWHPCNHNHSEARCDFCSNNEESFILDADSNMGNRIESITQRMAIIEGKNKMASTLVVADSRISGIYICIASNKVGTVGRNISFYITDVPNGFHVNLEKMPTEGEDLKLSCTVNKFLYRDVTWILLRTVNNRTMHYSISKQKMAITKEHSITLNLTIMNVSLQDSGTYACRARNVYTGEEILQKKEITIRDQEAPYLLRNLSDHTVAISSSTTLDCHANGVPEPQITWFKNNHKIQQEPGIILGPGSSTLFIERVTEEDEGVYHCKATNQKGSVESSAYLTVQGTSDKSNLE

D-serine
IC50 [1]: 2.43 ± 3 µM

NC(=O)[C@@H](CS)NC(=O)C(CCCCNC(=O)C(CCCCNC(=O)[C@H](CC1CCCCC1)NC(=O)C(CSCc1ccccc1)NC(=O)[C@H](N)CCC(=O)O)NC(=O)[C@H](CC1CCCCC1)NC(=O)C(CSCc1ccccc1)NC(=O)[C@H](N)CCC(=O)O)NC(=O)C(CCCCNC(=O)[C@H](CC1CCCCC1)NC(=O)C(CSCc1ccccc1)NC(=O)[C@H](N)CCC(=O)O)NC(=O)[C@H](CC1CCCCC1)NC(=O)C(CSCc1ccccc1)NC(=O)[C@H](N)CCC(=O)O (some centres unmarked) [iVR1-Cys]
% residual peptide ± SD ([2]; 0 h, 50 mM phosphate buffer pH 7.3, initial 10 μmol/L): 101 ± 4%
remaining at 1 h, 10 μmol/L ([2]; cattle (fetal calf), 10% fetal calf serum in phosphate buffer, 1 h, pH 7.3, read-out: % residual peptide ± SD): 100 ± 11%
remaining at 2 h, 10 μmol/L ([2]; cattle (fetal calf), 10% fetal calf serum in phosphate buffer, 2 h, pH 7.3, read-out: % residual peptide ± SD): 99 ± 7%
remaining at 3 h, 10 μmol/L ([2]; cattle (fetal calf), 10% fetal calf serum in phosphate buffer, 3 h, pH 7.3, read-out: % residual peptide ± SD): 98 ± 5%
remaining at 4 h, 10 μmol/L ([2]; cattle (fetal calf), 10% fetal calf serum in phosphate buffer, 4 h, pH 7.3, read-out: % residual peptide ± SD): 97 ± 4%
remaining at 5 h, 10 μmol/L ([2]; cattle (fetal calf), 10% fetal calf serum in phosphate buffer, 5 h, pH 7.3, read-out: % residual peptide ± SD): 96 ± 5%
remaining at 6 h, 10 μmol/L ([2]; cattle (fetal calf), 10% fetal calf serum in phosphate buffer, 6 h, pH 7.3, read-out: % residual peptide ± SD): 99 ± 6%
remaining at 7 h, 10 μmol/L ([2]; cattle (fetal calf), 10% fetal calf serum in phosphate buffer, 7 h, pH 7.3, read-out: % residual peptide ± SD): 95 ± 8%
remaining at 8 h, 10 μmol/L ([2]; cattle (fetal calf), 10% fetal calf serum in phosphate buffer, 8 h, pH 7.3, read-out: % residual peptide ± SD): 96 ± 5%
remaining at 9 h, 10 μmol/L ([2]; cattle (fetal calf), 10% fetal calf serum in phosphate buffer, 9 h, pH 7.3, read-out: % residual peptide ± SD): 95 ± 6%
remaining at 10 h, 10 μmol/L ([2]; cattle (fetal calf), 10% fetal calf serum in phosphate buffer, 10 h, pH 7.3, read-out: % residual peptide ± SD): 94 ± 10%
remaining at 11 h, 10 μmol/L ([2]; cattle (fetal calf), 10% fetal calf serum in phosphate buffer, 11 h, pH 7.3, read-out: % residual peptide ± SD): 94 ± 8%
remaining at 12 h, 10 μmol/L ([2]; cattle (fetal calf), 10% fetal calf serum in phosphate buffer, 12 h, pH 7.3, read-out: % residual peptide ± SD): 93 ± 4%
remaining at 24 h, 10 μmol/L ([2]; cattle (fetal calf), 10% fetal calf serum in phosphate buffer, 24 h, pH 7.3, read-out: % residual peptide ± SD): 93 ± 6%
remaining at 72 h, 10 μmol/L ([2]; cattle (fetal calf), 10% fetal calf serum in phosphate buffer, 72 h, pH 7.3, read-out: % residual peptide ± SD): 92 ± 7%
remaining at 120 h, 10 μmol/L ([2]; cattle (fetal calf), 10% fetal calf serum in phosphate buffer, 120 h, pH 7.3, read-out: % residual peptide ± SD): 91 ± 5%
remaining at 168 h, 10 μmol/L ([2]; cattle (fetal calf), 10% fetal calf serum in phosphate buffer, 168 h, pH 7.3, read-out: % residual peptide ± SD): 92 ± 8%

L-cysteine
IC50 [1]: 2.03 ± 0.2 µM

L-methionine sulfone
IC50 [1]: 4.62 ± 1.4 µM
